US20160122723A1, “ENGINEERED THREE-DIMENSIONAL SKIN TISSUES, ARRAYS THEREOF, AND METHODS OF MAKING THE SAME” (ORGANOVO, INC., priority 2014, published 2016)
Read-outs that look alike come from different tables or passages of the source.

Experiments:
Type in all cases: cell-based, human
[1] = test system: bioprinted full thickness skin tissue; test: Skin irritation test, LDH activity, 15 minute exposure, 24 well plate format (Example 5)
From the text: Bio-ink was generated by a cellular mixture of 100% primary adult human dermal fibroblasts (HDFa) in 8% gelatin (Novogel® 2.0) in a concentration of 50 million cells per milliliter. The cell: gelatin ratio was altered to further reduce the cellular density of the dermal sheet to better mimic dermal tissue in native skin. Three-dimensional bio-ink constructs were printed by continuous deposition using the Novogen Bioprinter® platform in a 2 mm×2 mm×0.5 mm base sheet to create a dermal structure resembling a sheet. A smaller syringe needle was used to achieve greater resolution at the reduced size. Instead of printing one 0.5 mm sheet with a 500 μm diameter syringe needle, two layers of 0.25 mm sheets printed with a 250 μm diameter needle. One tissue construct was printed per transwell-in a 24 well plate. The transwell printing surface contained a polytetrafluoroethylene (PTFE)-membrane coated with equimolar mixture of types I and III collagen (bovine) with pores 3 μm in-size. […] Cell paste was measured post print at 96.0% viable by trypan exclusion assay. […] IL-1α production (R&D Systems) was analyzed in a colorimetric assays per manufacturer's protocol. Media was analyzed for lactate dehydrogenase as a marker for cytotoxicity. IL-1α production was assessed as a complementary endpoint to classic cytotoxicity testing to improve predictability of irritants. […]

[2] = test system: bioprinted full thickness skin tissue; test: Skin irritation test, viability by alamar blue assay, 15 minute exposure, 24 well plate format (Example 5)
From the text: (§1) Bio-ink was generated by a cellular mixture of 100% primary adult human dermal fibroblasts (HDFa) in 8% gelatin (Novogel® 2.0) in a concentration of 50 million cells per milliliter. The cell: gelatin ratio was altered to further reduce the cellular density of the dermal sheet to better mimic dermal tissue in native skin. Three-dimensional bio-ink constructs were printed by continuous deposition using the Novogen Bioprinter® platform in a 2 mm×2 mm×0.5 mm base sheet to create a dermal structure resembling a sheet. A smaller syringe needle was used to achieve greater resolution at the reduced size. Instead of printing one 0.5 mm sheet with a 500 μm diameter syringe needle, two layers of 0.25 mm sheets printed with a 250 μm diameter needle. One tissue construct was printed per transwell-in a 24 well plate. The transwell printing surface contained a polytetrafluoroethylene (PTFE)-membrane coated with equimolar mixture of types I and III collagen (bovine) with pores 3 μm in-size. Epidermal cell paste containing a mixture of 100% primary neonatal human epidermal keratinocytes (HEKn) was then printed on top of the dermal bio-ink. Cell paste was measured post print at 96.0% viable by trypan exclusion assay. Cell number in deposited epidermal layer was estimated at 11,000 cells by cell counting on a Cell-O-Meter. Immediately following the print, constructs were placed in 4° C. for 10 minutes. This is a key step to harden the Novogel®, which helps to maintain the printed shape and improve construct to construct uniformity. Cold media was then added to the outer well of the transwell in a volume of 1 ml. The media used for subsequent growth and maintenance of the skin tissue was a 50:50 ratio of HDFa:HEKn media. The initial volume added was sufficient to submerge the structure. […] IL-1α production (R&D Systems) was analyzed in a colorimetric assays per manufacturer's protocol. Media was analyzed for lactate dehydrogenase as a marker for cytotoxicity. IL-1α production was assessed as a complementary endpoint to classic cytotoxicity testing to improve predictability of irritants. […]

[3] = test system: bioprinted full thickness skin tissue; test: Skin irritation test, IL-1α production, 15 minute exposure, 24 well plate format (Example 5)
From the text: as §1

[4] = test system: bioprinted full thickness skin tissue; test: Skin irritation test, macroscopic and histological analysis (H&E, CK5/IVL, CK10, collagen 3, PCNA, TUNEL) (Example 4); settings: 1% for 1 hour
From the text: (§2) Bio-ink was generated by a cellular mixture of 100% primary adult human dermal fibroblasts (HDFa) in 8% gelatin (Novogel® 2.0) at a concentration of 100 million cells per milliliter. The cell: gelatin ratio was altered to reduce the cellular density of the dermal sheet to better mimic dermal tissue in native skin. Three-dimensional bio-ink constructs were printed by continuous deposition using the Novogen Bioprinter® platform in a 4 mm×4 mm×0.5 mm base to create a dermal structure resembling a sheet. One tissue construct was printed per transwell in a […]. The transwell printing surface contained a polytetrafluoroethylene (PTFE) membrane coated with equimolar mixture of types I and III collagen (bovine) with pores 3 μm in size. Epidermal cell paste containing a mixture of 100% primary neonatal human epidermal keratinocytes (HEKn) was then printed on top of the dermal bio-ink. Cell paste was measured post print at 87.1% viable by trypan exclusion assay. Cell numbers in the deposited epidermal layer was estimated at 60,000 cells by cell counting on a Cell-O-Meter. Immediately following the print, constructs were placed at 4° C. for 10 minutes. Cold media was then added to the outer well of the transwell in a volume of 3 ml. The media used for subsequent growth and maintenance of the skin tissue was a 50:50 ratio of HDFa:HEKn media. The initial volume added was sufficient to submerge the structure. All subsequent media changes used warmed media (37° C.) added to the outer well of the transwell and not to the inner basket. Media was changed 48 hours later and reduced to a volume of 1.5 ml per well to bring the structure to an air-liquid interface (ALI). Media and subsequently changed 48 hours after that (day 4) at a volume of 1.5 ml. On day 5, media was changed and further reduced to 1 ml per well and subsequently changed daily. On day 10, skin tissues were subject to a skin irritation test method using 1% Triton X 100. 1% Triton X-100™ is a known irritant and reference chemical currently used in other 3D skin models. Methods were based on OECD guidelines 439 and 431 for applying human skin models to in vitro skin irritation or corrosion, respectively. On day 10, conditioned media was saved (designated time=0) and 1 ml of fresh media was added to the outer well of the transwell. The printed skin tissue was then treated with 20 μl of PBS as a negative control or with 20 μl of 1% Triton X-100™ as a positive control and known irritant. Test substances were pipetted manually to the apical surface of the tissue. Triton X-100™ was diluted to a 1% aqueous solution in deionized water and sterile filtered through a 20 micron filter before use. Samples were incubated for 30 minutes at 37° C. followed by 30 minutes at room temperature for a total of 60 minutes. Media was saved (designated time=1 hour). Samples were then washed extensively by PBS rinsing. Transwells were then placed in a new 6-well plate with fresh media (1 ml) added to the outer well then placed back into 37° C. overnight. The media was then changed at 24 hours and at 48 hours post treatment. Total media collected included time points=−48, 0, 1, 24, and 48 hours. IL-1α production (R&D Systems) was analyzed in a colorimetric assays per manufacturer's protocol. Media was analyzed for lactate dehydrogenase as a marker for cytotoxicity. IL-1α production was assessed as a complementary endpoint to classic cytotoxicity testing to improve predictability of irritants. Keratinocytes normally produce and release inflammatory cytokine IL-1α in response to chemical or physical stress. At 48 hours post treatment (day 12), tissues were either lysed for RNA extraction and subsequent qPCR analysis, or tested for viability by alamar blue assay then rinsed in PBS and fixed with 2% PFA for histological analysis. Alamar blue (Life Technologies) was added per manufacturer's instructions to media and incubated with tissue constructs (1 ml) at 37° C. for 3 hours. […]

[5] = test system: bioprinted full thickness skin tissue; test: Skin irritation test, lactate dehydrogenase (LDH) activity in media, 1 hour exposure (Example 4); settings: 1% Triton X 100 for 1 hour, apical; at 1 hour, 24 hours and 48 hours post treatment
From the text: (§3) Bio-ink was generated by a cellular mixture of 100% primary adult human dermal fibroblasts (HDFa) in 8% gelatin (Novogel® 2.0) at a concentration of 100 million cells per milliliter. The cell: gelatin ratio was altered to reduce the cellular density of the dermal sheet to better mimic dermal tissue in native skin. Three-dimensional bio-ink constructs were printed by continuous deposition using the Novogen Bioprinter® platform in a 4 mm×4 mm×0.5 mm base to create a dermal structure resembling a sheet. One tissue construct was printed per transwell in a […]. The transwell printing surface contained a polytetrafluoroethylene (PTFE) membrane coated with equimolar mixture of types I and III collagen (bovine) with pores 3 μm in size. Epidermal cell paste containing a mixture of 100% primary neonatal human epidermal keratinocytes (HEKn) was then printed on top of the dermal bio-ink. Cell paste was measured post print at 87.1% viable by trypan exclusion assay. Cell numbers in the deposited epidermal layer was estimated at 60,000 cells by cell counting on a Cell-O-Meter. […] IL-1α production (R&D Systems) was analyzed in a colorimetric assays per manufacturer's protocol. Media was analyzed for lactate dehydrogenase as a marker for cytotoxicity. IL-1α production was assessed as a complementary endpoint to classic cytotoxicity testing to improve predictability of irritants. […]

[6] = test system: bioprinted full thickness skin tissue; test: Skin irritation test, qPCR gene expression analysis (Example 4); settings: 1% for 1 hour
From the text: as §2, with “Test substances were pipetted manually to the apical surface of the tissue. Triton X-100™ was diluted to a 1% aqueous solution in deionized water and sterile filtered through a 20 micron filter before use. Samples were incubated for 30 minutes at 37° C. followed by 30 minutes at room temperature for a total of 60 minutes. Media was saved (designated time=1 hour). Samples were then washed extensively by PBS rinsing. Transwells were then placed in a new 6-well plate with fresh media (1 ml) added to the outer well then placed back into 37° C. overnight. The media was then changed at 24 hours and at 48 hours post treatment. Total media collected included time points=−48, 0, 1, 24, and 48 hours.” left out, “irritants.” for “irritants. Keratinocytes normally produce and release inflammatory cytokine IL-1α in response to chemical or physical stress. At 48 hours post treatment (day 12), tissues were either lysed for RNA extraction and subsequent qPCR analysis, or tested for viability by alamar blue assay then rinsed in PBS and fixed with 2% PFA for histological analysis. Alamar blue (Life Technologies) was added per manufacturer's instructions to media and incubated with tissue constructs (1 ml) at 37° C. for 3 hours.”

[7] = test system: bioprinted full thickness skin tissue; test: Skin irritation test, IL-1α production in media, colorimetric assay, 1 hour exposure (Example 4); settings: 1% for 1 hour
From the text: as §3, with “Cell-O-Meter. Immediately following the print, constructs were placed at 4° C. for 10 minutes. Cold media was then added to the outer well of the transwell in a volume of 3 ml. The media used for subsequent growth and maintenance of the skin tissue was a 50:50 ratio of HDFa:HEKn media. The initial volume added was sufficient to submerge the structure. All subsequent media changes used warmed media (37° C.) added to the outer well of the transwell and not to the inner basket. Media was changed 48 hours later and reduced to a volume of 1.5 ml per well to bring the structure to an air-liquid interface (ALI). Media and subsequently changed 48 hours after that (day 4) at a volume of 1.5 ml.” for “Cell-O-Meter.”

[8] = test system: bioprinted full thickness skin tissue; test: Skin irritation test, viability by alamar blue assay, 1 hour exposure (Example 4); settings: 1% for 1 hour; 48 hours post treatment (day 12)
From the text: as §3

Compound: CCCCCCCCCCCCOS(=O)(=O)[O-].[Na+] [SDS]
- LDH activity higher than PBS [1]: about 1.7 fold
- irritant strength under these testing conditions [2]: much stronger irritant
- viable compared to the PBS control (alamar blue) [2]: 2.45%
- IL-1a production [3]: induced
- IL-1a production, response compared between the two irritants [3]: much stronger response

Compound: Triton X-100
- LDH activity higher than PBS ([1]; 15 minute exposure, 5% SDS or 1% Triton X, 42 hours post exposure): about 1.4 fold
- irritancy to bioprinted skin as suggested by histology [4]: irritant
- CK5 positive basal keratinocyte layer ([4]; 48 hours post treatment): fragmented
- Collagen 3 staining compared to the PBS control ([4]; 48 hours post treatment): reduction in dermal fibroblast function
- apoptosis by TUNEL staining in the dermal layer ([4]; 48 hours post treatment): increase in apoptosis
- histological analysis by H&E ([4]; 48 hours post treatment): separation of the epidermal and dermal layers
- proliferation by PCNA staining ([4]; 48 hours post treatment, dermal fibroblasts and basal layer): reduction in proliferation
- induction in LDH activity compared to PBS control [5]: roughly 2 fold
- CK1 and CK10 gene expression ([6]; 48 hours post exposure): reduced
- collagen production of types 1, 3, and 4 collagen (gene expression) ([6]; 48 hours post exposure): reduced
- expression of both epidermal and dermal markers ([6]; 48 hours post exposure): dramatically reduces
- IL1a gene expression increase in comparison to the PBS control ([6]; 48 hours post treatment): about 3 fold
- viable compared to the PBS control (alamar blue) ([2]; 15 minute exposure, 5% SDS or 1% Triton X, 42 hours post treatment (day 15)): 68.75%
- IL-1α levels ([7]; 24 hours post treatment): remained high
- IL-1α levels ([7]; 48 hours post treatment): returned to baseline
- IL-1α activity in comparison to PBS control ([7]; greatest difference observed 1 hour post treatment): increased
- IL-1a production ([3]; 15 minute exposure, 5% SDS or 1% Triton X): induced
- reduction in viability as compared to the PBS control [8]: 80%
